Measurements: PubChem BioAssay (NCI)
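In this assay, cells in 96-well plates receive the compound at five concentrations for 48 hours. Endpoints are linearly interpolated between the surrounding concentrations. TGI marks complete inhibition of growth.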

Assays:
Assay in all cases: NCI anticancer screen, dose series, 48 h
IGROV1 ovarian = tested on: IGROV1 ovarian
M14 melanoma = tested on: M14 melanoma
786-0 renal = tested on: 786-0 renal
SNB-19 CNS = tested on: SNB-19 CNS
SK-MEL-28 melanoma = tested on: SK-MEL-28 melanoma
UACC-257 melanoma = tested on: UACC-257 melanoma
CAKI-1 renal = tested on: CAKI-1 renal
TK-10 renal = tested on: TK-10 renal
RXF 393 renal = tested on: RXF 393 renal
PC-3 prostate = tested on: PC-3 prostate

Structure (SMILES)	TGI (IGROV1 ovarian) [µM]	TGI (M14 melanoma) [µM]	TGI (786-0 renal) [µM]	TGI (SNB-19 CNS) [µM]	TGI (SK-MEL-28 melanoma) [µM]	TGI (UACC-257 melanoma) [µM]	TGI (CAKI-1 renal) [µM]	TGI (TK-10 renal) [µM]	TGI (RXF 393 renal) [µM]	TGI (PC-3 prostate) [µM]
COC[C@H](Cc1ccccc1)N=Cc1ccccc1	> 100	> 100	> 100	> 100	> 100	> 100	> 100	> 100	> 100	> 100
CN(C)CCCNc1ccc2nnn3c4ccc([N+](=O)[O-])cc4c(=O)c1c23	13.3	8.31	13	15.3	17.2	16.7	12.9	7.95	4.25	11.7
O=C(CSCC(=O)N/N=C\c1cc(Br)cc(Br)c1O)N/N=C\c1cc(Br)cc(Br)c1O	66.2	34.8	> 100	> 100	> 100	62	73	71.8	> 100	> 100
O=S(=O)(CC#CCS(=O)(=O)c1ccccc1)c1ccccc1	2.94	4.36	2.24	32.9	25.7	14.7	3.42	7.61	3.38	22.3
CC(C)Oc1c(O)c2c3c(oc(=O)n3C=CC2c2ccccc2F)c1OC(C)C (stereo not given)	> 100	65.4	> 100	> 100	> 100	> 100	> 100	> 100	81.5	40.1
CCOC(=O)C1(C/C=C\CBr)CCCCCCC1=O (stereo not given)	> 100	> 100	> 100	> 100	> 100	> 100	> 100	> 100	> 100	> 100
CC(=O)CC(=O)Nn1c(-c2cccs2)nc2ccc(I)cc2c1=O	> 100	> 100	> 100	> 100	> 100	> 100	> 74	> 100	> 100	> 100
O=C1c2c(ccc3c2CCCC3)CC12Cc1ccccc1C2	> 100	> 100	> 100	> 100	> 80.4	54	> 77.7	> 100	46.2	> 100
C=C(Cl)C(Cl)(CBr)CCC(Cl)C(C)C (stereo not given)	30.8	42.6	4.26	14.2	5.62	6.02	5.74	3.12	22	5.8
Fc1ccccc1N=c1oc2ccc(Br)cc2cc1-c1nc2ccccc2[nH]1	> 42.1	35.8	8.5	21.9	> 76.2	> 47.5	35.8	17.2	21.8	> 23.4
COc1ccc(N=Nc2ccc3oc(=O)c(C(=O)Nc4ccc(OC)cc4)cc3c2)cc1	44	43.5	44.5	83.1	41.1	73.9	> 100	> 100	> 100	43.1
COc1cc(OC)cc(N(C)Cc2cnc3nc(N)nc(N)c3c2C)c1	> 100	55.4	> 100	> 100	> 100	> 100	> 100	> 100	> 100	> 100
C[C@H]1C(=O)C2=C[C@H]1CCC(=O)[C@]1(C)CCCC(C)(C)[C@H]1C[C@H]2O	> 100	25.9	32.5	> 100	> 100	83.6	> 100	28.7	23.6	> 100
O=C(C(=O)n1ccc2ccccc21)c1c[nH]c2ccccc12	> 10	> 10	> 10	> 10	> 10	> 10	> 10	> 10	> 10	> 10
CC(C)(C)OC(=O)N(CCCN)CCCCN(CCCN)C(=O)OC(C)(C)C	> 100	> 100	> 100	> 100	> 100	> 100	> 100	> 100	> 100	> 100
CCOc1c(OC)cc(CNNc2nccs2)cc1OC	> 100	> 100	> 100	> 100	> 100	> 100	> 100	> 100	> 100	> 100
CN1CCN(c2nc3c(c(=O)n(C)c(=O)n3C)n2C)CC1	> 100	> 100	> 100	> 100	> 100	> 100	> 100	> 100	> 100	> 100
O=C(O)CCCCCNC(=O)CCC(CN(CC(=O)OCc1ccccc1)CC(=O)OCc1ccccc1)N(CC(=O)OCc1ccccc1)CC(=O)OCc1ccccc1 (stereo not given)	33.8	32.3	34.1	32.9	33.7	33.1	33.3	29.9	28.9	32.4
